Where two headings read alike, the source gives them in different places.
Experiments:
[1] = test system: β-catenin-responsive reporter gene Topflash; assay: Topflash luciferase reporter assay in CV1 cells (Wnt signaling); format: cell-based; settings: 1 μM OAC1 or 2 μM BIO, 48 hr
Description: Whether OAC1 regulates major signaling pathways that are critical for embryonic stem cell pluripotency was investigated. […] CV1 cells were transfected with the β-catenin-responsive reporter gene Topflash, and the transfected cells were treated with vehicle control or OAC1 (FIG. 6C). The glycogen synthase kinase 3β (GSK3β) inhibitor BIO was included as a positive control (42).
(§1) AzaC, 25 μg/ml Vc, 10 nM Am580, 5 μM tranylcypromine, and 0.5 mM VPA. Luciferase reporter assays were performed as described (51) 24 hr after compound treatment or at indicated time points. For Topflash reporter assays, 0.2 μg β-catenin-responsive Topflash reporter gene plasmid was introduced into CV1 cells using trasfection (Bio-Rad). Compounds were added 6 hr after transfection. Luciferase activity was measured 48 hr after compound treatment using the Glo Luciferase Assay System (Promega).

human Nanog promoter = assay: Nanog-luc luciferase reporter assay (stably transfected CV1 cells); format: cell-based; settings: for induction of Nanog-luc, comparison with known reprogramming enhancers (in words): OAC1 1 μM, BIO 2 μM, BIX 2 μM, AzaC 2 μM, Vc 25 μg/ml, Am580 10 nM, tranylcypromine 5 μM, VPA 0.5 mM, two days
Description: Oct4, Sox2, and Nanog form a positive regulatory loop to regulate the expression of each other, and Nanog is considered a downstream target gene of Oct4 and Sox2 (37). Therefore, activation of Nanog promoter was used as a validation assay for the identified compounds. Specifically, the Oct4 promoter-activating compounds were tested to ascertain whether they activate a human
Nanog promoter-driven luciferase reporter gene using in triplicate luciferase reporter assays.
(§2) Then the promoter sequences were cloned into pGL4.4-luc-Hyg vector (Promega) to get Oct4-luc or Nanog-luc construct and the fidelity of the Oct4 and Nanog promoter DNA sequences was confirmed by bi-directional sequencing. CV 1 cells were transfected with the Oct4-luc or Nanog-luc constructs and the stably-transfected cells were selected by hygromycine resistance.
(§3) Luciferase Reporter Assays: The Oct4-luc or Nanog-luc cells were treated with compound OAC 1 or its structural analogs at 1 μM concentration or at indicated concentrations in triplicates. Other compounds used include 2 μM BIO, 2 μM BIX, 2 μM
as §1

human Oct4 promoter = assay: Oct4-luc luciferase reporter assay (stably transfected CV1 cells); format: cell-based; settings: for induction of Oct4-luc, comparison with known reprogramming enhancers (in words): OAC1 1 μM, BIO 2 μM, BIX 2 μM, AzaC 2 μM, Vc 25 μg/ml, Am580 10 nM, tranylcypromine 5 μM, VPA 0.5 mM, two days; for fold induction at 1 µM: compound at 1 μM, Oct4-luc cells, triplicates
Text: A high-throughput screening scheme was designed to identify Oct4 promoter-activating compounds using a luciferase reporter under the control of the human Oct4 promoter (Oct4-luc). […] A stable cell line (Oct4-luc) that expresses luciferase reporter driven by the exogenous Oct4 promoter was established using hygromycin-resistance as a selection marker. These Oct4-luc cells were used for high-throughput screening of a chemical library of 80,000 compounds. The luciferase reporter activity was measured 24 hr after compound treatment. Solvent treatment was included as a negative control.
as §2
Compound Screening: The Oct4-luc cells were seeded at 1.75×10^4 cells per well density into 96-well plates. Compounds were added to cells one day after cell seeding at the concentration of 10 μM for 24 hr in the High-Throughput Screening core facility at City of Hope. Compounds that induced luciferase activity 3-fold or more were selected for further validation in both Oct4-luc and Nanog-luc cells.
as §3, §1

[2] = test system: human fibroblast cells (IMR90); assay: human iPSC derivation from 4F (OSKM)-transduced IMR90 fibroblasts; format: cell-based
Description: It has been shown that compound OAC1 (Oct4-activating compound I) and two of its structural analogs OAC2 and OAC3 can enhance reprogramming efficiency, when added to the reprogramming mixture along with the four transcription factors, Oct4, Sox2, Klf4, and c-Myc (OSKM), in mouse system. The OAC compounds were tested to determine if they can enhance reprogramming efficiency in human system. The reprogramming process was performed as described in the diagram (FIG. 14a). Briefly, human fibroblast cells (IMR90) were induced to reprogram into induced pluripotent stem cells (iPSCs) using the four reprogramming factors (4F), OSKM. The day when the cells were transduced with the four reprogramming factors was referred to as day 0. Cells were cultured in IMR90 media for six days. On day 6, the transduced cells were split and seeded onto feeders. On day 7, IMR90 culture media was changed to hESC culture media and started compound treatment. Compound treatment was lasted for one week. Cells were monitored for the appearance of human embryonic stem cell (ESC)-like colonies. On day 9, several small human ESC-like colonies appeared in both 4F+OAC1 and 4F+OAC2-treated cells, however, human ESC-like colonies were not observed in 4F+vehicle (4F)-treated cells until day 11. To determine the effect of OAC on the efficiency of human iPSC derivation, the number of human ESC-like colonies were counted under all three conditions at day 18. Both OAC 1 and its structural analog OAC2 increased the number of human ESC-like colonies more than two-fold (FIG. 14b, c). The human ESC-like colonies were picked from either 4F or 4F+OAC-treated cells and expanded under human ESC culture conditions. These cells were able to expand and stably produce human iPSC clones with characteristic human ESC-like morphology (FIG. 14d).

[3] = test system: mouse embryonic fibroblasts (MEFs); assay: iPSC derivation from 4F (OSKM)-transduced MEFs in mouse ESC media; format: cell-based; settings: 4F+OAC
Description: The generation of iPSCs is a gradual process with relatively low efficiency. Since Oct4 is central to the reprogramming process (35, 36, 38), it was hypothesized that compounds that activate Oct4 transcription may facilitate iPSC generation by enhancing reprogramming efficiency. Reprogramming of mouse embryonic fibroblasts (MEFs) was performed with the 4F reprogramming quartet Oct4, Sox2, Klf4, and c-Myc, along with solvent control, OAC1 or its structural analogs OAC2 and OAC3. The same number of starting MEFs and the same viral stocks were used for each treatment. Two days after viral transduction, the 4F-transduced cells were seeded onto feeder cells in mouse ESC culture media, and this day was designated as day 0 (FIG. 2D). Compound treatment started on day 0 and lasted for 7 days. By counting the number of clones with ESC-like morphology at day 18, both OAC1 and its analogs OAC2 and OAC3 enhanced the 4F-induced reprogramming efficiency considerably. The number of colonies with ESC-like morphology (FIG. 2E) increased 2-fold or more in 4F plus OAC (4F+OAC) treatment, compared to the 4F treatment alone (FIG. 2F, Table 3).
iPSC Derivation in Mouse ESC Media: OG2/R26MEFs were seeded onto […] at the density of 4×10^4 cells per well in DMEM medium with 10% FBS, 0.1 mM non-essential amino acids (NEAA), and 0.1 mM L-glutamine, 24 hr before transduction. Freshly concentrated viruses of the four factors, Oct4, Sox2, c-Myc, and Klf4, were added to the cells. Two days after viral infection, the viral-transduced OG2/R26MEFs were split into new 6-well plates with irradiated MEF feeder cells and cultured in mouse ESC culture medium containing 15% ESC qualified FBS, 2 mM L-glutamine, 0.1 mM 2-mercaptoethanol, 0.1 mM NEAA, 1 mM sodium pyruvate and 1000 U/ml of leukemia inhibitory factor (LIF), and this day was defined as day 0. 1 μM of each compound (OAC1, OAC2, and OAC3) was added to the 4F-transduced cells at day 0 and treatment was continued for 1 week. When iPSC colonies emerged, these colonies were picked for expansion on irradiated MEF feeders in mouse ESC medium.

[4] = day 8 post-infection of reprogramming factors; cited from earlier work
MEFs = settings: OSKM, seeding 2.7 × 10^5, day 8, reference (2) Huangfu 2008; cited from earlier work

SMILES: O=C1Nc2cc(Br)ccc2/C1=C1/Nc2ccccc2/C1=N\O [BIO, reference compound]
- effect on Topflash reporter activity [1]: activated the Topflash reporter potently
- induction of Nanog-luc, comparison with known reprogramming enhancers (in words) (human Nanog promoter): lower level induction
- induction of Oct4-luc, comparison with known reprogramming enhancers (in words) (human Oct4 promoter): lower level induction

SMILES: O=C(Nc1ccc2[nH]ccc2c1)c1ccccc1 [OAC2, N-(1H-indol-5-yl)benzamide]
- fold induction at 1 µM (human Nanog promoter; Chlorocebus aethiops, CV-1, compound at 1 μM, Nanog-luc cells, triplicates): 3.9
- day at which human ESC-like colonies appeared ([2]; IMR90, 4F+compound, day 0 = transduction, 4F+vehicle day 11): 9 days
- increase in the number of human ESC-like colonies ([2]; IMR90, day 18, versus 4F): more than two
- advance of the appearance of putative iPSC colonies compared to 4F only reprogramming [3]: about three to four
- fold induction at 1 µM (human Oct4 promoter; Homo sapiens, CV-1, 24 h, read-out: Oct4-luc Activity): ≥ 1.8
- fold induction at 1 µM (human Oct4 promoter; read-out: Oct4-luc fold Induction): 3.6

SMILES: CC(/C=C/C(=O)NO)=C\[C@@H](C)C(=O)c1ccc(N(C)C)cc1 [TSA]
- increase in reprogramming efficiency in iSF1 media [4]: 2 fold

SMILES: CCCC(CCC)C(=O)O [VPA, valproic acid]
- induction of Nanog-luc, comparison with known reprogramming enhancers (in words) (human Nanog promoter): no significant effect
- increase in reprogramming efficiency in iSF1 media [4]: 2 fold
- Colony numbers (MEFs): 241
- Reprogramming efficiency (MEFs): 0.089%
- induction of Oct4-luc, comparison with known reprogramming enhancers (in words) (human Oct4 promoter): no significant effect

Reference: US8962322B2, “Enhancers of induced pluripotent stem cell reprogramming” (City of Hope, priority 2012, dated 2015)
